Tests used:
SKCa and IKCa1 channel = conditions: reported in the literature; cited from earlier work
[1] = target: T1, Kv1.3 channels in Jurkat T lymphocytes (Homo sapiens, UniProt P22001); assay: Whole-cell patch clamp of Kv1.3 current in Jurkat T lymphocytes (internal control); type: cell-based; conditions: transfected Jurkat T lymphocytes
T1 construct: endogenous in cells; host or cells: Jurkat T lymphocytes
Description: (§1) PC12 and Jurkat T cells were studied in the whole cell configuration of the patch clamp technique with a holding potential of −80 mV. SK and Kv current amplitude were determined in untransfected cells or in cells transfected with SKCa3-1b-GFP, SKCa3-1b-IRES-GFP, or control constructs (GFP vector alone, GFP-Kv1.7). […] Brightly GFP-positive cells were identified under a fluorescence microscope to allow the analysis of cells expressing high levels of the channel constructs for electrophysiological studies. Control constructs were expressed at equivalently high levels as assessed by the intensity of the GFP signal.
(§2) To activate SK channels, the pipette solution contained (in mM): 145 K^+ aspartate, 2 MgCl2, 10 HEPES, 10 K2EGTA, and 8.5 CaCl2 (1 μM free Ca^2+), pH 7.2, 290–310 mOsm. […] The amplitude of the KV current was measured as the maximum current at 30 mV in 160 Na^+ aspartate. […]
(§3) Human Jurkat T lymphocyte cell line was chosen for these experiments because they express SK2 channels and no other SK channels, along with voltage-gated Kv1.3 channels that could serve as an internal control (Fanger et al, J. Biol. Chem. 2001; 276: 12249–12256; Grissmer et al, J. Gen. Physiol. 1992; 99: 63–84; Desai et al, J. Biol. Chem. 2000; 275: 39954–39963.). Using the electrophysiological protocol described above for PC12 cells, SK2 and Kv1.3 currents in Jurkat cells were measured. […]

SKCa3-1a currents = assay: Co-expression with SKCa3-1a in mammalian cells, calcium-activated currents; type: cell-based; conditions: untagged or with a GFP tag
Text: When normally expressed in mammalian cells, native or green fluorescence protein (GFP) tagged SKCa3-1a produces robust apamin- and Leiurus toxin-sensitive calcium-activated currents (Shakkottai et al., J. Biol. Chem. 276 (46): 43145–43151, 2001.).

GFP-SKCa1 currents = assay: Co-expression with GFP-SKCa1 in mammalian cells, calcium-activated currents; type: cell-based; conditions: expressed in mammalian cells
Text: GFP-SKCa1 produces robust calcium-activated currents when expressed in COS-7 cells (Shakkottai et al., J. Biol. Chem. 276 (46): 43145–43151, 2001.). When co-expressed with fluorescently labeled SKCa3-1b (Tomita et al, 2002 Mol. Psych. In press) or fluorescently labeled SKCa3-1c, dominant-negative suppression of SKCa3-1a is seen. Similarly, fluorescently labeled SKCa3-1b (Tomita et al, 2002 Mol. Psych. In press) and fluorescently labeled SKCa3-1c dominant-negatively suppress endogenous SKCa currents present in PC12 cells (Sun et al., J. Hum. Genet. 46, 463–470, 2001.).

[2] = target: T2, SK2 channels in Jurkat T lymphocytes (Homo sapiens, UniProt Q9H2S1); assay: Whole-cell patch clamp of native SK2 current in Jurkat T lymphocytes; type: cell-based; conditions: transfected Jurkat T lymphocytes
T2 construct: endogenous in cells; host or cells: Jurkat T lymphocytes
Description: as §1, §2, §3

SKCa3-1a currents, sequence (Q9UGI6 81-731): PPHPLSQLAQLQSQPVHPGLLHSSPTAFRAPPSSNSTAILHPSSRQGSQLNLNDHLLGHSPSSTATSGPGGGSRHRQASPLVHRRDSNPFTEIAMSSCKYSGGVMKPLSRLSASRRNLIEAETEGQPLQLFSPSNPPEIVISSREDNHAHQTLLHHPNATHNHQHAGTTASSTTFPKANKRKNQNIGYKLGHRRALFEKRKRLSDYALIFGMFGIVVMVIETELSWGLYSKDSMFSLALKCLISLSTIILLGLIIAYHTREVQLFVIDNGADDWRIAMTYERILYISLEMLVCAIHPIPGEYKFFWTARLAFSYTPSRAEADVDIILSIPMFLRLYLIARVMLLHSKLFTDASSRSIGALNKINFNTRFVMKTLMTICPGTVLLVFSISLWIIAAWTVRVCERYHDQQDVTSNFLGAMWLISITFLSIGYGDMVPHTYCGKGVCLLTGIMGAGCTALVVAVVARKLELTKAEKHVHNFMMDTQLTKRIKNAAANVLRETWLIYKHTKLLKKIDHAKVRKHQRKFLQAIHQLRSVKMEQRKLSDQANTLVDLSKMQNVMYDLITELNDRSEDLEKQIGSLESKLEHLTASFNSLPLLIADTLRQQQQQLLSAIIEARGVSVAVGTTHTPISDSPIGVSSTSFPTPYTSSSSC
GFP-SKCa1 currents, sequence (Q92952 2-543): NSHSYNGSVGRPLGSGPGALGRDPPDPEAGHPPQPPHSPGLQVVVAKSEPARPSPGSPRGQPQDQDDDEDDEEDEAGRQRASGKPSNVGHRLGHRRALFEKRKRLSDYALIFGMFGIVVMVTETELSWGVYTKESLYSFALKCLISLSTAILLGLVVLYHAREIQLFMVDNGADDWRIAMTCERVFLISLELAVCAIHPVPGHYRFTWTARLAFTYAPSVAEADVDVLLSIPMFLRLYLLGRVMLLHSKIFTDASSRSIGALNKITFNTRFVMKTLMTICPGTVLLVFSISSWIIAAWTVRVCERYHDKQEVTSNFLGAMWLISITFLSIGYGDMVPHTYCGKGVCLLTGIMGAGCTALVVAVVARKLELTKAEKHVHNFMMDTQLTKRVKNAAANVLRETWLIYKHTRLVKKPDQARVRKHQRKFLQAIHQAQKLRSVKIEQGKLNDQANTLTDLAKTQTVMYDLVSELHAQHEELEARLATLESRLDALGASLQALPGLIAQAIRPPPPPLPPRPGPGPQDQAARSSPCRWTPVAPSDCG
T1 sequence (P22001 whole entry): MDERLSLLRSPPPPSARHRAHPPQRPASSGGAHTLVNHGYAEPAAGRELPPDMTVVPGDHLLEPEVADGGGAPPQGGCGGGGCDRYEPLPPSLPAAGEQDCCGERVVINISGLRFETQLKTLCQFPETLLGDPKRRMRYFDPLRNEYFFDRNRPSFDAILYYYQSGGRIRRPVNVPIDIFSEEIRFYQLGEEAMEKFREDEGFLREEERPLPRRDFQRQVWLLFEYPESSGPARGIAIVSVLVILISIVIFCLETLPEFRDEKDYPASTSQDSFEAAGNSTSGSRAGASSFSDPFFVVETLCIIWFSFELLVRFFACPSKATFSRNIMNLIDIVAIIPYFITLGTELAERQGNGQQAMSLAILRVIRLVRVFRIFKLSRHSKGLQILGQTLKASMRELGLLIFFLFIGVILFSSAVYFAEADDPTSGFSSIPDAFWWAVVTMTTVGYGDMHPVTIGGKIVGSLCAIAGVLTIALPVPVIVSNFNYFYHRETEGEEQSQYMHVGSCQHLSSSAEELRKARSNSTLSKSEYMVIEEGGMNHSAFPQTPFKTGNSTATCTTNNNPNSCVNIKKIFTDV
T2 sequence (Q9H2S1 whole entry): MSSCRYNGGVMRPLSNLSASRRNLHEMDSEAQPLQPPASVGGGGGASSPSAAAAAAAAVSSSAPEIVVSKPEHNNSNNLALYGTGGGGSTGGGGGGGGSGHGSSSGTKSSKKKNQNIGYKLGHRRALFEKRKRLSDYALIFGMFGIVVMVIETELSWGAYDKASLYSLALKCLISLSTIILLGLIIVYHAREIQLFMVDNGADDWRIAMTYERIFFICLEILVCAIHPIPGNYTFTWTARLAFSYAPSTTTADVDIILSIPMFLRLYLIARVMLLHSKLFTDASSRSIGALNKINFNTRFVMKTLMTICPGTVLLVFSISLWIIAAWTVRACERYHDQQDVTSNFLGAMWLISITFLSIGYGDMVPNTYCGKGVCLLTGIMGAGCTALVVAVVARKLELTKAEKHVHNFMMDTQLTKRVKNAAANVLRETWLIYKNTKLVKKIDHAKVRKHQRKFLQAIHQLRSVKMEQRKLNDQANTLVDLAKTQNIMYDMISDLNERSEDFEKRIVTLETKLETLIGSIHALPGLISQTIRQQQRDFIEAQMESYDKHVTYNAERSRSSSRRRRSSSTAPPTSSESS

Row | Molecule | effect on SKCa and IKCa1 channel opening (SKCa and IKCa1 channel) | effect of transfection on control Kv1.3 current [1] | effect of co-expression on SKCa3-1a current (SKCa3-1a currents) | effect on GFP-SKCa1 currents (GFP-SKCa1 currents) | effect of transfection on native SK2 current [2]
1 | CCn1c(=O)[nH]c2ccccc21 [1-ethyl-2-benzimidazolinone] | enhance SKCa and IKCa1 channel opening | – | – | – | –
2 | SKCa3-1b: isoform variant of the SK3 gene (SEQ ID NO: 2) using exon 1b, lacking N-terminus and S1 segment | – | unaffected | selective dramatic inhibition | negative dominantly suppress | suppressed
3 | SKCa3-1c: isoform variant of the SK3 gene (SEQ ID NO: 4) using exon 1c, lacking N-terminus and S1 segment | – | – | comparable results | negative dominantly suppress | –
